# Measurements reported in US8609661B2, “Pyrimido-pyrrolo-quinoxalinedione inhibitors of cystic fibrosis transmembrane conductance regulator protein and uses therefor” (The Regents of the University of California, priority 2009, dated 2013).
# Assays:
# [1] = biological target: T1, human wildtype CFTR (Homo sapiens, UniProt P13569); experiment: Fluorescence platereader assay of CFTR-mediated iodide influx (YFP quenching) in FRT cells; format: cell-based
# T1 construct: expressed in transfected cells; host or cells: Fischer rat thyroid (FRT) cells
# T1 sequence (P13569 whole entry): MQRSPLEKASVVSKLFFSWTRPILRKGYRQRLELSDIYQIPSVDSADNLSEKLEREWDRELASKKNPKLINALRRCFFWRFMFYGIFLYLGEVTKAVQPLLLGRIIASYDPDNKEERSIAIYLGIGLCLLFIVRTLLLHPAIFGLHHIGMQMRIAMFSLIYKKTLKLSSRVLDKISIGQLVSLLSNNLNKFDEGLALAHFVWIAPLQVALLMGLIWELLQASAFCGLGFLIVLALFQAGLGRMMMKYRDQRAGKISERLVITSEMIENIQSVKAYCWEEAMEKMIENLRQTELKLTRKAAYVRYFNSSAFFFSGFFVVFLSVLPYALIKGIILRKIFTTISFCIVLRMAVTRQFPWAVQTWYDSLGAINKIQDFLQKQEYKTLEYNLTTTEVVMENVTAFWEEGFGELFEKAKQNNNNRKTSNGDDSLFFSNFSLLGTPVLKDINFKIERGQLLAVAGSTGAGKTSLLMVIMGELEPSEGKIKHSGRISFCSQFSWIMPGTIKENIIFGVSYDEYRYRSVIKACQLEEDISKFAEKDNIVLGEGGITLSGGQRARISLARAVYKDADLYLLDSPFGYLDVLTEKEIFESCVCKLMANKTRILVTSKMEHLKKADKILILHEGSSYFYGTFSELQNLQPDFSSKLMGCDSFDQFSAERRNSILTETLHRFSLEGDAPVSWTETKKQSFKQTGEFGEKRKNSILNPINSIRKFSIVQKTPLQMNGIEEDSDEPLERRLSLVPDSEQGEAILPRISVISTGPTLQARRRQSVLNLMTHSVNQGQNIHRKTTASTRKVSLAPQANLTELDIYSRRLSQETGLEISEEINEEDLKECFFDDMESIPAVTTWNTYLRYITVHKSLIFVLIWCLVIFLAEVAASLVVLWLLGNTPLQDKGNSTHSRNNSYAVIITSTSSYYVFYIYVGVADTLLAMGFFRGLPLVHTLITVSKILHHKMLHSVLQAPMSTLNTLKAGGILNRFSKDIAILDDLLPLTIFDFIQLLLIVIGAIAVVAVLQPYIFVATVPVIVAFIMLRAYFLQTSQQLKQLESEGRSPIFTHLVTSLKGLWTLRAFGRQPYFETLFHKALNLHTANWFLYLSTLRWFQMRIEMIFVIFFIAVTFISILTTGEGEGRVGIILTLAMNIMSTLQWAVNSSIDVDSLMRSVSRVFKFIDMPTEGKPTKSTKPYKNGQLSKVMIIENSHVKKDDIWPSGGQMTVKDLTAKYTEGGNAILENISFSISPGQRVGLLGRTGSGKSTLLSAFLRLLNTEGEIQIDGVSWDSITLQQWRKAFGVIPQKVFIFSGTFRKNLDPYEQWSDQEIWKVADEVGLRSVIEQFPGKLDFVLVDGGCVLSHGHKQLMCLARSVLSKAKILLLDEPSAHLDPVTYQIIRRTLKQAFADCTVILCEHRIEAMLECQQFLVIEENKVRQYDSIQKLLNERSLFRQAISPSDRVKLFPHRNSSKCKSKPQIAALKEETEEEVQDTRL
# Method in brief: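 Fischer rat thyroid cells co-expressing human wildtype CFTR and the YFP-H148Q/1152L halide sensor were seeded at 20,000 cells per well in 96-well black-walled plates and assayed 48 h later at confluence. After PBS washes and a 15 min incubation, CFTR was maximally activated with an agonist mixture. Fluorescence was recorded for 2 s before and 10 s after adding 160 μL iodide-substituted PBS, and iodide influx rates came from non-linear regression.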
# [2] = biological target: CFTR (Homo sapiens, UniProt P13569); experiment: Short-circuit current in non-permeabilized T84 and human bronchial epithelial cells; format: cell-based; parameters: endogenous in cells; host or cells: T84 human intestinal epithelial cells; primary human bronchial epithelial cells; conditions: forskolin and IBMX, read-out: IC50 for CFTR inhibition
# Chain of CFTR (P13569 whole entry): as above
# Description: Short-Circuit Current Measurements—Snapwell inserts containing CFTR-expressing FRT cells (stably expressing human wildtype CFTR), T84 cells, or human bronchial epithelial cells were mounted in Ussing chambers. For FRT cells the hemichambers were filled with 5 mL of 75 mM NaCl and 75 mM Na gluconate (apical), and 150 mM NaCl (basolateral) (pH 7.3), and the basolateral membrane was permeabilized with 250 μg/mL amphotericin B. For bronchial epithelial cells and T84 cells, both hemichambers contained a Krebs-bicarbonate solution. Hemichambers were continuously bubbled with air (FRT cells) or 5% CO2 in air (bronchial and T84 cells) and maintained at 37° C. Short-circuit current was recorded continuously using a DVC-1000 voltage clamp (World Precision Instruments, Sarasota, Fla.) using Ag/AgCl electrodes and 3 M KCl agar bridges.
structure (smiles),measurement,setting,value
"Cc1ccc(C2Nc3ccccc3-n3c(-c4ccccc4)c4c(=O)n(C)c(=O)n(C)c4c32)o1 (racemic) [PPQ-102, 7,9-Dimethyl-11-phenyl-6-(5-methylfuran-2-yl)-5,6-dihydro-pyrimido[4′,5′-3,4]pyrrolo[1,2-a]quinoxaline-8,10-(7H,9H)-dione]",inhibition at 5 µM,"[1]; FRT, Table 2, screening, 5 μM, read-out: % Inhibition at 5 μM",85%
same,inhibition at 25 µM,"[1]; FRT, Table 2, screening, 25 μM, read-out: % Inhibition at 25 μM",97%
same,IC50,"[1]; apparent IC50 from concentration-inhibition data, fluorescence platereader assay",800 nM
same,IC50,[2],< 1000 nM
